According to article PMC12735921, “Evaluation of Antiproliferative Activity and Molecular Modeling Studies of Some Novel Benzimidazolone-Bridged Hybrid Compounds” (Pharmaceuticals, 2025):
Where “and” joins values, the source holds several entries; their conditions need not be identical. Equal entries are not always repeated.

Experiments:
Assay type in all cases: cell-based, human
HeLa cells [1] = test: LDH leakage assay, HeLa; conditions: IC50 concentration of compound, 48 h, H2O2 positive control, mean ± SD, n = 3
Experimental: (§1) One hundred microliters of culture medium was transferred to a new 96-well plate. One hundred microliters of LDH reaction solution was added to each well, and absorbance was measured at 490 nm using an ELISA plate reader (BMG Labtech, Ortenberg, Germany) after 30 min.

HeLa cells [2] = test: Intracellular GSH/GSSG ratio, HeLa; conditions: IC50 concentration of compound, 48 h, H2O2 positive control, mean ± SD, n = 3
Experimental: (§2) Intracellular reduced (GSH) and oxidized (GSSG) glutathione levels were measured using the GSH/GSSG Ratio Detection Assay Kit (Cayman Chemical, Ann Arbor, MI, USA, Cat. No: 703002) according to the manufacturer’s protocol. […] After treatment, cells were washed with cold PBS and lysed with MES buffer provided in the kit.
(§3) To prevent oxidation of GSH to GSSG during processing, samples were deproteinized using the supplied metaphosphoric acid solution and neutralized accordingly. Total glutathione and GSSG levels were measured separately by adding the appropriate buffers and reagents to the wells of a 96-well plate, followed by the addition of DTNB recycling reagent and glutathione reductase. Absorbance was read at 405 nm using a microplate reader (BMG Labtech, Germany). The amount of GSH was calculated by subtracting 2 × GSSG from the total glutathione, and the GSH/GSSG ratio was used to assess intracellular redox status.

A549 cells [3] = test: LDH leakage assay, A549; conditions: A549, IC50 concentration of compound, 48 h; H2O2 positive control; mean ± SD, n = 3
Experimental: as §1

A549 cells [4] = test: Cell cycle analysis (PI staining, flow cytometry), A549; conditions: A549, IC50 concentration, 48 h, mean ± SEM, n = 3
Experimental: (§4) Cell cycle distribution was assessed by propidium iodide (PI) staining and flow cytometry. HeLa, MCF-7, and A549 cells were seeded in 6-well plates at a density of 1 × 10^5 cells per well and allowed to attach overnight. […] Following exposure, both adherent and floating cells were collected, washed twice with cold phosphate-buffered saline (PBS, pH 7.4), and fixed overnight in 70% cold ethanol at 4 °C. After fixation, the cells were centrifuged and resuspended in 500 µL of PI/RNase staining solution containing 50 µg/mL PI and 100 µg/mL RNase A (Sigma-Aldrich®, St. Louis, MO, USA), followed by incubation in the dark for 30 min at 37 °C. The stained samples were analyzed using a Muse™ Cell Analyzer (Merck, Millipore, Germany) equipped with a 488 nm excitation laser and a 617 nm emission filter. A minimum of 10,000 events per sample were acquired after exclusion of debris and doublets via FSC-A vs. FSC-H gating. The DNA content histograms were generated automatically, and cell populations were expressed as percentages of G0/G1, S, and G2/M phases using the Muse™ Cell Cycle Analysis Software 1.5.0.0. All assays were conducted in triplicate biological repeats (n = 3), and results were reported as mean ± SEM.

HeLa cells [5] = test: MTT cell viability assay, HeLa
Procedure, shortened: (§5)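 Cells exposed to compounds at 0.5–200 µM for 48 h in DMEM with 10% FBS at 37 °C, 5% CO2; formazan dissolved in DMSO and read at 570 nm. Cytotoxicity relative to untreated control; IC50 from four-parameter logistic fit, mean of three independent measurements, triplicate samples.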

MCF-7 cells [6] = test: Cell cycle analysis (PI staining, flow cytometry), MCF-7; conditions: MCF-7, IC50 concentration, 48 h, mean ± SEM, n = 3
Experimental: as §4

A549 cells [7] = test: Intracellular GSH/GSSG ratio, A549; conditions: A549, IC50 concentration of compound, 48 h; H2O2 positive control; mean ± SD, n = 3
Experimental: as §2, §3

MCF-7 cells [8] = test: Total oxidative status (TOS), MCF-7; conditions: MCF-7, IC50 concentration of compound, 48 h; H2O2 250 µM positive control; mean ± SD, n = 3
Experimental: TOS were evaluated using a commercially available kit (Rel Assay Diagnostics®, Gaziantep, Turkey) according to the manufacturer’s instructions. […] The TOS assay quantifies oxidizing agents based on their ability to convert an iron (II) ion chelator complex to iron (III) ions. The results were calibrated against hydrogen peroxide (H2O2, 250 µM) as a positive control for 48 h and expressed as µmol H2O2 equivalents per liter. The analysis was performed in three independent biological replicates (n = 3).

MCF-7 cells [9] = test: MTT cell viability assay, MCF-7
Procedure, shortened: as §5

With `O=C(O)Cn1c(=O)n(CC(=O)O)c2cc(Cl)c(Cl)cc21` [Compound 6, 2,2′-(5,6-Dichloro-2-oxo-1H-benzo[d]imidazole-1,3(2H)-diyl)diacetic Acid] the LDH (HeLa cells [1]) was 27.3 ± 2.5 µU/mL and 27.3 ± 2.5 ^a,b µU/mL, the GSH/GSSG (HeLa cells [2]) was 10.6 ± 1.1 and the LDH (A549 cells [3]) was 24.5 ± 2.0 µU/mL and 24.5 ± 2.0 ^a,b µU/mL. For the same molecule, the “cells in G0/G1 phase” value (A549 cells [4]) was 59.8 ± 2.0%, the “cells in G2/M phase” value (A549 cells [4]) was 19.6 ± 1.4% and the “cells in S phase” value (A549 cells [4]) was 20.6 ± 1.5%. The IC50 (HeLa cells [5]; Homo sapiens, HeLa, MTT, 48 h, mean ± SD, n = 3) was 31.2 ± 1.8 µM, the “HeLa Selectivity Index (SI)” value (HeLa cells [5]; SI = IC50 (HEK 293)/IC50 (HeLa)) was 2 and the “cells in G0/G1 phase” value (MCF-7 cells [6]) was 66.1 ± 1.9%. The “cells in G2/M phase” value (MCF-7 cells [6]) was 14.9 ± 1.3%, the “cells in S phase” value (MCF-7 cells [6]) was 19.0 ± 1.4% and the GSH/GSSG (A549 cells [7]) was 11.2 ± 1.0 nmol/mg Protein and 11.2 ± 1.0 ^a,b nmol/mg Protein. For the same molecule, the TOS (MCF-7 cells [8]) was 6.9 ± 0.5 µmol H2O2 eq/L and 6.9 ± 0.5 ^a,b µmol H2O2 eq/L, the IC50 (MCF-7 cells [9]; Homo sapiens, MCF7, MTT, 48 h, mean ± SD, n = 3) was 28.3 ± 1.63 µM and the “MCF-7 Selectivity Index (SI)” value (MCF-7 cells [9]; SI = IC50 (HEK 293)/IC50 (MCF-7)) was 2.21.
